Data reported in BindingDB's records for doi:10.1016/j.bmcl.2005.03.003 (Gsk, 2005).

Biological target: T1, Phenylalanine--tRNA ligase alpha/beta subunit (Staphylococcus aureus, UniProt P68849+Q9AGR3)
T1 sequence (P68849 whole entry): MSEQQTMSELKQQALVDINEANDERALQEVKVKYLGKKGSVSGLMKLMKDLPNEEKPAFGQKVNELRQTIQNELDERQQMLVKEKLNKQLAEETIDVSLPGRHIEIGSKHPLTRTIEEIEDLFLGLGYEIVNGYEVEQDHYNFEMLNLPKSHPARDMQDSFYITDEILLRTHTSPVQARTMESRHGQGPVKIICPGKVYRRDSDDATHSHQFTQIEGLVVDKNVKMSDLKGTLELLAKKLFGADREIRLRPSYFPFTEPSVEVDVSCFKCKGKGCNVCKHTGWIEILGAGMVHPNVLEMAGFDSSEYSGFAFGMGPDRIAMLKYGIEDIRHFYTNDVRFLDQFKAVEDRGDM
T1 sequence (Q9AGR3 whole entry): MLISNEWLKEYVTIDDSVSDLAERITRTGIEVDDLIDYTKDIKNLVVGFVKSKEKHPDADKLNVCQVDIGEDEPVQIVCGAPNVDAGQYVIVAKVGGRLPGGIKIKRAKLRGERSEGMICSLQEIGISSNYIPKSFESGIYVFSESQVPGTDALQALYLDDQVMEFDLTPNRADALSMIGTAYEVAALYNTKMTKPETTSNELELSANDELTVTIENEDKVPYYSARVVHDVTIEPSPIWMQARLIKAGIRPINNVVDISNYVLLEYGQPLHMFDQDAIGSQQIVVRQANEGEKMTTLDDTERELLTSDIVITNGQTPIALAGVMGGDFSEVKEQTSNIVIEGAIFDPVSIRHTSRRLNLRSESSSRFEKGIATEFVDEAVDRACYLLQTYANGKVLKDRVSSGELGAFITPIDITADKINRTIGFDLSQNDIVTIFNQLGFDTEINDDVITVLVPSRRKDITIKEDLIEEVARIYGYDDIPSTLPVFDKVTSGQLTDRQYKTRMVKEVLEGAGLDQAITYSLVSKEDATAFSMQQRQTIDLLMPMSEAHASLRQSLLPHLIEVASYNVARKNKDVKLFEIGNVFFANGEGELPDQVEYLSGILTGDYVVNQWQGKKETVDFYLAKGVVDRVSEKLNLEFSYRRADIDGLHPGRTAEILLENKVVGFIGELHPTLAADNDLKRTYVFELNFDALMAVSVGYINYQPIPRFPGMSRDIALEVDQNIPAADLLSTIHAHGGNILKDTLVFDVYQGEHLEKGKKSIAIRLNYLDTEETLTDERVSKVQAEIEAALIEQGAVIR
Assay: Homogeneous Enzyme Assay with SPA Beads
Method: The reactions were performed in […] 384-well Packard Optiplates. After 10 min of incubation, the reaction was stopped by addition of a continuously shaken suspension of YSi SPA beads at pH 2. Under acidic conditions, SPA beads bind tRNA aggregates, while radiolabeled amino acid substrate remains in solution. The beads were allowed to settle for at least 45 min and the plates were counted in a microplate scintillation counter TopCount (Packard).

In the case of OC(CNCc1ccccc1N1CCOCC1)c1cccc(C(F)(F)F)c1 (configuration not stated) [2-({[2-(morpholin-4-yl)phenyl]methyl}amino)-1-[3-(trifluoromethyl)phenyl]ethan-1-ol], the IC50 (pH 7.9, 37 °C) is reported as over 10000 nM.

For O=C(O)CCCOc1ccccc1CNCC(O)c1cc(Br)cs1 (configuration not stated) [4-[2-({[2-(4-bromothiophen-2-yl)-2-hydroxyethyl]amino}methyl)phenoxy]butanoic acid], the IC50 (pH 2) was 43 nM.
